Laboratory results published in PMC11054271, “ABCG2 Transports the Flukicide Nitroxynil and Affects Its Biodistribution and Secretion into Milk” (Pharmaceutics, 2024).
Read-outs that look alike come from different tables or passages of the source.

Assays:
[1] = Transepithelial transport assay in parental MDCK-II monolayers; format: in vitro ADME, canine; details: dog, nitroxynil 10 µM, no Ko143, read-out: Relative efflux transport ratio (BA/AB)
Description: (§1) Parental Madin–Darby canine kidney epithelial cells (MDCK–II) and their subclones transduced with murine (mAbcg2) and human (hABCG2) variants of ABCG2 were kindly provided by Dr. A. H. Schinkel (Netherlands Cancer Institute). Transduced MDCK–II cells with the ovine (oABCG2) and bovine (bABCG2) variants were previously generated by our group. Cells were cultured as described elsewhere.
(§2) Transepithelial transport assays were carried out as previously described with minor variations, using Hanks’ balanced salt solution (Sigma-Aldrich) supplemented with HEPES (25 mM), with or without Ko143 (1 μM), and containing or not nitroxynil 10 μM. […] At the end of the experiment, confluence of the monolayer was measured with the previously described Lucifer Yellow permeability test, with minor modifications. The appearance of nitroxynil in the opposite side of the well was measured by HPLC as later described. Active transport was expressed as relative efflux transport ratio (apically directed transport percentage divided by the basolaterally directed translocation percentage) at 4 h and referred to the initial concentration. […]
(§3) Waters 2695 separation module and Waters 2998 UV photodiode array detector set at 270 nm were used for samples analysis. […] Limit of detection (LOD) and quantification (LOQ) were calculated as previously described. […]

murine Abcg2 [2] = test: Milk secretion experiment in lactating wild-type and Abcg2−/− female mice; format: in vivo; details: FVB/N, mouse, intravenous, lactating Abcg2−/− female mice, 30 min after 10 mg/kg i.v.
Description: (§4) All in vivo experiments were carried out using wild-type and Abcg2^−/− mice aged between 8 and 17 weeks, all of >99% FVB/N genetic background, generated and gently supplied by A. H. Schinkel (Netherlands Cancer Institute). Mice were housed and handled complying with institutional and ARRIVE guidelines and European legislation (EU Directive 2010/63/EU for animal experiments). Additionally, experimental procedures were approved by the Animal Care and Use Committee of the University of León and the Junta de Castilla y León (ULE_011_2019).
(§5) Pups of approximately 10 days old were separated from their mothers (wild-type (n = 10) and Abcg2^−/− (n = 11) female mice) 3 h before beginning the experiment. Milk secretion experiments were performed as previously described. Nitroxynil solution was prepared by diluting Distomicide® (250 mg/mL) commercial solution in saline and administered at a dose of 150 μL/30 g bw into the tail vein under anesthesia with isoflurane. An amount of 200 μL oxytocin (1 IU/mL) was administrated subcutaneously 10 min before milk collection. Blood and milk samples were collected from retro-orbital sinus and mammary gland, respectively, 30 min after nitroxynil administration.
(§6) Plasma, milk and tissue samples from each animal were individually processed and analyzed without pooling, while samples from transport assays were not processed. Tissue samples were homogenized in a mixture of 50% water/50% methanol HCl 0.5% (v/v); 1 mL solution per 0.1 g tissue. The entire amount of collected milk (74.7–295.1 mg) and 100 μL plasma and tissue homogenates were processed. To each sample, 10 μL of a nitrofurantoin solution (10 μg/mL for plasma and milk and 2 μg/mL for homogenized tissues) was added as an internal standard and 150 μL acetonitrile was used to precipitate the proteins. The mixture was vortexed horizontally for 15 min and centrifugated at 10,000× g for 5 min at 4 °C. Supernatant was transferred to a new tube and dried at 40 °C under N2 stream. Samples were reconstituted in 100 μL of mobile phase and 50 μL was injected into HPLC. Standards were subjected to the same procedures as samples.
(§7) Waters 2695 separation module and Waters 2998 UV photodiode array detector set at 270 nm were used for samples analysis. Chromatographic conditions for nitroxynil detection were based on previously described methods, with minor modifications. Chromatographic separation was achieved on a reverse-phase column (Synergy 4 μm Hydro–RP 80 Å, 250 × 4.60 mm; Phenomenex®, Torrance, CA, USA) using an isocratic binary mobile phase consisting of 25 mM potassium phosphate monobasic (KH2PO4), pH 4: acetonitrile (70:30 for culture samples and 80:20 for animal samples) at a flow rate of 1 mL/min. Autosampler and column temperature were 4 °C and 40 °C, respectively. Limit of detection (LOD) and quantification (LOQ) were calculated as previously described. For cell culture samples, LOD and LOQ were 0.003 μg/mL and 0.007 μg/mL, respectively. For in vivo samples, LOD was in the range of 0.01–0.07 μg/mL and LOQ in the range of 0.03–0.15 μg/mL.

murine Abcg2 [3] = tested on: T1, murine Abcg2; test: as above; format: in vivo; details: FVB/N, mouse, intravenous, lactating wild-type female mice, 30 min after 10 mg/kg i.v.
T1 construct: from tissue; host or cells: whole animal: wild-type vs Abcg2-/- mice, >99% FVB/N background
Description: as §4, §5, §6, §7

murine Abcg2 [4] = target: T2, murine Abcg2 (Mus musculus, UniProt Q7TMS5); test: Transepithelial transport assay in MDCK-II cells transduced with murine Abcg2; format: in vitro ADME; set-up: expressed in transfected cells; host or cells: MDCK-II (canine kidney) subclone, provided by A. H. Schinkel (Netherlands Cancer Institute); details: MDCK-II mAbcg2, nitroxynil 10 µM, no Ko143, read-out: Relative efflux transport ratio (BA/AB)
T2 sequence (Q7TMS5 1-657): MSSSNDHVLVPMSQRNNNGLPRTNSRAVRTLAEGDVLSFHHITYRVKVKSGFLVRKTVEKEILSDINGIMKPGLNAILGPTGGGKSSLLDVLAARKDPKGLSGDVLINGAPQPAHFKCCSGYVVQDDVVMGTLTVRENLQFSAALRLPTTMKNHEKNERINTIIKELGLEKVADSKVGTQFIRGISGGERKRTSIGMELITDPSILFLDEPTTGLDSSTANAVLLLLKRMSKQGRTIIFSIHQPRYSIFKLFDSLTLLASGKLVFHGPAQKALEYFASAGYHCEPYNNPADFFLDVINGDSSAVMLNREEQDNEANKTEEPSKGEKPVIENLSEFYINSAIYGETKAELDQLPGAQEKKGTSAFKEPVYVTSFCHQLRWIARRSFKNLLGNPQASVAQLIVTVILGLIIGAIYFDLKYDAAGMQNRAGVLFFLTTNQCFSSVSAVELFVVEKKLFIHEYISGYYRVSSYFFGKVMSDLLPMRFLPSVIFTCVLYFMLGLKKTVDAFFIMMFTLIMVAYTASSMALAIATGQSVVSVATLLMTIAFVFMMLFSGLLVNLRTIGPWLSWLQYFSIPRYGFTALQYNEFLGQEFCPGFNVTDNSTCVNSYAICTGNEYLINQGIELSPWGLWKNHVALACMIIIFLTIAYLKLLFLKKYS
Description: as §1, §2, §3

[5] = milk and plasma, read-out: Milk-to-plasma ratio
[6] = milk, read-out: Milk concentration
[7] = plasma, read-out: Plasma concentration

- efflux ratio at 4 h, 10 µM [1]: 1.04 ± 0.03
- Kp at 30 min (murine Abcg2 [2]; [5]): 0.1 ± 0.03
- concentration at 30 min (murine Abcg2 [2]; [6]): 8100 ± 1000 ng/mL
- concentration at 30 min (murine Abcg2 [2]; [7]): 62800 ± 13900 ng/mL
- Kp at 30 min (murine Abcg2 [3]; [5]): 0.3 ± 0.1
- concentration at 30 min (murine Abcg2 [3]; [6]): 15700 ± 6300 ng/mL
- concentration at 30 min (murine Abcg2 [3]; [7]): 58800 ± 11200 ng/mL
- efflux ratio at 4 h, 10 µM (murine Abcg2 [4]): 32.3 ± 7.59
Structure (SMILES): N#Cc1cc(I)c(O)c([N+](=O)[O-])c1 [nitroxynil]
